Consider 7 compounds from the Kinase Knowledgebase extract (Sharma et al. 2016).

Structures are written as SMILES. Some results are limits rather than exact numbers.

The target in assay [1] is MAPK14 (human) (UniProt Q16539). As to the kind of experiment: Inhibition of MAPK14 Kinase Activity by Fluorescence Anisotropy Kinase Binding Assay.
For assay [2] the target is unchanged. Nature of the assay: Inhibition of MAPK14 Kinase Activity.

MAPK14 (human), sequence (Q16539 whole entry, looked up): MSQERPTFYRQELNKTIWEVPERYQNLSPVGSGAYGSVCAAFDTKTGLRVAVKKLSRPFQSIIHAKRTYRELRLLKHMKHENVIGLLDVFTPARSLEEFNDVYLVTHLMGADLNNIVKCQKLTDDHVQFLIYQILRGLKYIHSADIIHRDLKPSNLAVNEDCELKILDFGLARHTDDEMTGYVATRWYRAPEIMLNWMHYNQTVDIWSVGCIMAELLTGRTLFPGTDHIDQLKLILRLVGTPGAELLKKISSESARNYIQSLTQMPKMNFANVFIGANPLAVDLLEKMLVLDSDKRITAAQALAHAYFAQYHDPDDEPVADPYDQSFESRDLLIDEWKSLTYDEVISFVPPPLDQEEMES

In the case of `O=c1ccc2c(-c3ccc(F)cc3F)nc(NC(CO)CO)nc2n1-c1c(F)cc(F)cc1F`, the IC50 on MAPK14 (human) [1] was below 1000 nM; against MAPK14 (human) [2] it was below 10000 nM.

`O=c1ccc2c(-c3ccc(F)cc3Cl)nc(NC(CO)CO)nc2n1-c1ccc(F)cc1F`: the IC50 on MAPK14 (human) [1] is below 1000 nM.

With `O=c1ccc2c(-c3ccc(F)cc3)nc(NC(CO)CO)nc2n1-c1c(F)cc(F)cc1F`, on MAPK14 (human) [1], the IC50 is below 1000 nM. On the same count and under the same terms, next, `O=c1ccc2c(-c3ccc(F)cc3F)nc(NC(CO)CO)nc2n1-c1cccc(F)c1F`: below 1000 nM. Compound `C[C@@H](CO)Nc1nc(-c2ccc(F)cc2F)c2ccc(=O)n(-c3ccc(F)cc3)c2n1` returned a half-inhibitory concentration (IC50) at MAPK14 (human) [1] below 1000 nM. With `O=c1ccc2c(-c3ccc(F)cc3F)nc(NC(CO)CO)nc2n1-c1ccc(F)cc1F`, the IC50 at MAPK14 (human) [1] was below 1000 nM; at MAPK14 (human) [2], below 10000 nM. Regarding `O=c1ccc2c(-c3ccccc3F)nc(NC(CO)CO)nc2n1-c1c(F)cc(F)cc1F`, the IC50 is below 1000 nM on MAPK14 (human) [1] and below 10000 nM against MAPK14 (human) [2].
